Patent US8859463B2, “Method for controlling noxious organisms” (Sumitomo Chemical Company, Limited, priority 2009, dated 2014)

Legend:
Format in all cases: in vivo
[1] = tested on: Senna obtusifolia; experiment: Herbicidal activity, soybean pot test, Example 58; details: strobilurin seed treatment none, twelve days after sowing
Procedure: (§1) In a plastic cup measuring 65 mm in inner diameter and 75 mm in height, 4.8 mg of a pyraclostrobin emulsifiable concentrate (emulsifiable concentrate containing 23.8% pyraclostrobin, manufactured by BASF under the trade name of Comet) and 12 soybean seeds were placed. The pyraclostrobin emulsifiable concentrate was adhered to the soybean seeds by shaking this plastic cup by hand. In the same manner, 13.2 mg of the pyraclostrobin emulsifiable concentrate was adhered to the soybean seeds. In the same manner, 4.8 mg of an azoxystrobin suspension (emulsifiable concentrate containing 22.9% azoxystrobin, manufactured by Syngenta under the trade name of Amistar) was adhered to the soybean seeds. In the same manner, 20.4 mg of an azoxystrobin suspension was adhered to the soybean seeds.
(§2) A water diluted solution of a trifloxystrobin granular wettable powder (2.6%) was prepared by adding 52 mg of a trifloxystrobin granular wettable powder (granular wettable powder containing 50% trifloxystrobin, manufactured by Bayer Crop Science Inc. under the trade name of Flint) to 1 mL of desalted water. 51.6 mg of this water diluted solution and 12 soybean seeds were placed in the plastic cup. The water diluted solution of trifloxystrobin was adhered to the soybean seeds by shaking this plastic cup by hand. In the same manner, 199.2 mg of the water diluted solution of trifloxystrobin was adhered to the soybean seeds.
(§3) A plastic pot measuring 194 mm in inner diameter and 176 mm in height was filled with the soil. In this pot, 2 soybean seeds were sown per 1 pot and 10 seeds of Ipomoea hederacea var. integriuscula and Senna obtusifolia were sown per 1 pot. On the day of sowing of the soybean seeds, after sowing the soybean seed, a flumioxazin granule (granule containing 0.25% flumioxazin, manufactured by Valent USA Corporation under the trade name of BroadStar) was uniformly scattered over a surface of the soil in the amount described in Tables 19 to 21 by hand.
(§4) Twelve days after sowing the seeds of soybean, Ipomoea hederacea var. integriuscula and Senna obtusifolia, herbicidal activity was examined.

[2] = tested on: Ipomoea hederacea var. integriuscula; experiment: Herbicidal activity, soybean pot test, Example 58; details: strobilurin seed treatment none, twelve days after sowing
Procedure: as §1, §2, §3, §4

[3] = tested on: Ipomoea hederacea; experiment: Herbicidal activity, corn pot test, Example 16; details: azole seed treatment none, flumioxazin 50 g/ha, twelve days after sowing
Procedure: In a glass container measuring 60 mm in inner diameter and 20 mm in height, 8 μl of a prothioconazole emulsifiable concentrate (emulsifiable concentrate containing 25% prothioconazole, manufactured by Bayer Crop Science Inc. under the trade name of Proline) and 20 corn seeds were placed. The prothioconazole emulsifiable concentrate was adhered to the corn seeds by shaking this plastic cup by hand. In the same manner, 8 μl of a difenoconazole emulsifiable concentrate (emulsifiable concentrate containing 25% difenoconazole, manufactured by Syngenta under the trade name of Score) was adhered to 20 corn seeds. In the same manner, 50 mg of a tebuconazole suspension (suspension containing 20% tebuconazole, manufactured by Hokko Chemical Industry under the trade name of ONLY ONE Flowable) was adhered to 20 corn seeds.
A plastic pot measuring 194 mm in inner diameter and 176 mm in height was filled with the soil. In this pot, 3 corn seeds were sown per 1 pot and 10 seeds of Ipomoea hederacea were sown per 1 pot. […]

[4] = tested on: Aulacorthum solani; experiment: Insecticidal effect (protective value), soybean pot test, Example 1; details: clothianidin none, day 6 after release
Procedure: (§5) The evaluation of the insecticidal effect was performed by determining the life and death of the insects at the time of the investigation and calculating the protective value according to the following equation; Protective Value (%)=100×(1−T/C) wherein the symbols have the following meanings;
(§6) C: The number of insects at the time of observation in an untreated section: and
(§7) T: The number of insects at the time of observation in a treated section.
(§8) Thereafter, the test pot was placed in a greenhouse.

[5] = tested on: Ipomoea lacunosa; experiment: Herbicidal activity, corn pot test, Example 76; details: metalaxyl-M none, flumioxazin 25 g/ha, ten days after sowing
Procedure: In a glass container measuring 60 mm in inner diameter and 20 mm in height, 15 mg of a metalaxyl-M emulsifiable concentrate (emulsifiable concentrate containing 33.3% metalaxyl-M, manufactured by Syngenta under the trade name of Apron XL) and 25 corn seeds were placed. After capping this glass container, the metalaxyl-M emulsifiable concentrate was adhered to the corn seeds by shaking the glass container by hand. In the same manner, 33 mg of the metalaxyl-M emulsifiable concentrate was adhered to the corn seeds.
A plastic pot measuring 194 mm in inner diameter and 176 mm in height was filled with the soil. In this pot, 2 corn seeds were sown per 1 pot and 10 seeds of Ipomoea lacunosa were sown per 1 pot. On the day of sowing of the corn seeds, after sowing the corn seeds, a water diluted solution (24.5 mg of product/liter) of a flumioxazin granular wettable powder (granular wettable powder containing 51% flumioxazin, manufactured by Valent USA Corporation under the trade name of Valor SX), a water diluted solution (66.7 mg of product/liter) of a sulfentrazone granular wettable powder (granular wettable powder containing 75% sulfentrazone manufactured by FMC Corporation under the trade name of Cover), a water diluted solution (15 mg/liter) of saflufenacil and a water diluted solution (100 mg/liter) of oxyfluorfen were uniformly sprayed over a surface of the soil in each amount described in Tables 28 to 31, using a sprayer. The water diluted solutions of saflufenacil and oxyfluorfen were prepared by dissolving each predetermined amount of saflufenacil and oxyfluorfen in acetone containing 2% (w/v) Tween 20 and diluting each solution with water so as to adjust the concentration of acetone to 10% by volume.
Ten days after sowing the seeds of corn and Ipomoea lacunosa, herbicidal activity was examined.

[6] = tested on: Aulacorthum solani; experiment: Insecticidal effect (protective value), soybean pot test, Example 2; details: thiamethoxam none; flumioxazin 50 g/ha; day 6 after release
Procedure: as §5, §6, §7, §8

[7] = tested on: Spodoptera litura; experiment: Insecticidal effect (protective value), corn pot test, Example 4; details: clothianidin none, day 3 after release
Procedure: as §5, §6, §7
In addition, the clothianidin suspension was attached to the corn seeds in a similar manner except that it was used in an amount of 217.5 μL.
Thereafter, the test pot was placed in a greenhouse. On day 22 after corn sowing, 10 fourth-instar larvae of Spodoptera litura were released in the pot and the whole pot was then covered with a nylon cloth.
On day 3 after release of Spodoptera litura, the insecticidal effect was examined.

**Q.** Which results are given for `C#CCN1C(=O)COc2cc(F)c(N3C(=O)C4=C(CCCC4)C3=O)cc21` [Flumioxazin, flumioxazin]?
**A.** Herbicidal activity Senna obtusifolia ([1]; flumioxazin 25 g/ha): 20; Herbicidal activity Senna obtusifolia ([1]; flumioxazin 100 g/ha): 45; Herbicidal activity Ipomoea hederacea var. integriuscula ([2]; flumioxazin 25 g/ha): 25; Herbicidal activity Ipomoea hederacea var. integriuscula ([2]; flumioxazin 100 g/ha): 85; Herbicidal activity on Ipomoea hederacea [3]: 88; Protective Value ([4]; flumioxazin 12.5 g/ha): 0%; Protective Value ([4]; flumioxazin 25 g/ha): 0%; Herbicidal activity [5]: 40; Protective Value [6]: 0%; Protective Value ([7]; flumioxazin 12.5 g/ha): 0%; Protective Value ([7]; flumioxazin 50 g/ha): 5%
